PubChem BioAssay (NCI)
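Protocol summary: plate cells (96-well), add compound at 5 concentrations, incubate 48 h, interpolate endpoints linearly. TGI denotes the concentration required for complete inhibition of growth.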

Tests used:
Assay in all cases: NCI-60 cell line screen, 48 h
[1] = tested on: SK-MEL-2 melanoma
[2] = tested on: OVCAR-3 ovarian
[3] = tested on: A498 renal
[4] = tested on: SNB-78 CNS
[5] = tested on: SR leukemia
[6] = tested on: RXF 393 renal
[7] = tested on: A549 NSCLC
[8] = tested on: LXFL 529 NSCLC
[9] = tested on: RPMI-8226 leukemia
[10] = tested on: NCI-H460 lung
[11] = tested on: DLD-1 colon
[12] = tested on: SF-539 CNS
[13] = tested on: SNB-19 CNS
[14] = tested on: COLO 205 colon
[15] = tested on: SK-MEL-28 melanoma
[16] = tested on: HOP-18 NSCLC
[17] = tested on: 786-0 renal
[18] = tested on: DMS 273 small cell lung
[19] = tested on: OVCAR-5 ovarian
[20] = tested on: SF-295 CNS
[21] = tested on: M19-MEL melanoma
[22] = tested on: UACC-257 melanoma
[23] = tested on: SK-MEL-5 melanoma
[24] = tested on: UACC-62 melanoma
[25] = tested on: MOLT-4 leukemia
[26] = tested on: IGROV1 ovarian
[27] = tested on: HCT-116 colon
[28] = tested on: NCI-H23 lung
[29] = tested on: OVCAR-4 ovarian
[30] = tested on: HL-60(TB) leukemia
[31] = tested on: U251 CNS
[32] = tested on: SK-OV-3 ovarian
[33] = tested on: HCC-2998 colon
[34] = tested on: LOX IMVI melanoma
[35] = tested on: NCI-H522 lung
[36] = tested on: HT29 colon
[37] = tested on: KM12 colon
[38] = tested on: SN12C renal
[39] = tested on: XF 498 CNS
[40] = tested on: KM20L2 colon
[41] = tested on: SNB-75 CNS
[42] = tested on: M14 melanoma
[43] = tested on: HOP-92 NSCLC
[44] = tested on: SF-268 CNS
[45] = tested on: UO-31 renal
[46] = tested on: CCRF-CEM leukemia
[47] = tested on: SW-620 colon
[48] = tested on: K-562 leukemia
[49] = tested on: ACHN renal
[50] = tested on: TK-10 renal
[51] = tested on: MALME-3M melanoma
[52] = tested on: DMS 114 small cell lung
[53] = tested on: OVCAR-8 ovarian
[54] = tested on: HCT-15 colon
[55] = tested on: NCI-H226 lung

Measured: TGI

CC(C)C(=O)/C=C/c1ccccc1
> 100 µM: [1] | [2] | [3] | [4] | [5] | [6] | [7] | [8] | [9] | [10] | [11] | [12] | [13] | [14] | [15] | [16] | [17] | [18] | [19] | [20] | [21] | [22] | [23] | [24] | [25] | [26] | [27] | [28] | [29] | [30] | [31] | [32] | [33] | [34] | [35] | [36] | [37] | [38] | [39] | [40] | [41] | [42] | [43] | [44] | [45] | [47] | [48] | [49]
67.5 µM: [46]

O=C(NCCNCCO)N/N=C/c1ccccc1
> 100 µM: [50] | [51] | [1] | [2] | [4] | [6] | [7] | [8] | [10] | [52] | [11] | [12] | [13] | [15] | [16] | [17] | [18] | [20] | [22] | [23] | [24] | [25] | [26] | [27] | [28] | [29] | [30] | [31] | [32] | [53] | [34] | [35] | [36] | [37] | [38] | [54] | [39] | [55] | [41] | [42] | [44] | [46] | [47] | [48] | [49]
